This note sets out measurements from publication PMC4664064 (Chemical research in toxicology, 2015).

Test [1] addresses T1, P450 1A1 (Homo sapiens, UniProt P04798).
T1 sequence (P04798 1-512): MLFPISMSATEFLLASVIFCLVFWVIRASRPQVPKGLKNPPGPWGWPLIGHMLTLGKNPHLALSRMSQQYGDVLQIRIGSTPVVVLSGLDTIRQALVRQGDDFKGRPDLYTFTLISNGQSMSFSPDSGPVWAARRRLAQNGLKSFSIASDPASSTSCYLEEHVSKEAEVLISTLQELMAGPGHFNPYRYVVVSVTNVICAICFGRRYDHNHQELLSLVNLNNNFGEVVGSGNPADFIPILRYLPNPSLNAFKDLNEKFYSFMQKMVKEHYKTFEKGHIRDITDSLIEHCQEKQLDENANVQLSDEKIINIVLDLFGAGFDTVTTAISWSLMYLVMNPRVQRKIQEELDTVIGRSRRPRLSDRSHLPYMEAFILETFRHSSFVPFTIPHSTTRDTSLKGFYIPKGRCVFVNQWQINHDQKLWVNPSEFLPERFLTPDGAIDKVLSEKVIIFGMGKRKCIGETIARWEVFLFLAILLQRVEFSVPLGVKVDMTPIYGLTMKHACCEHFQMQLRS
T1 sequence (P16435 2-677 partner): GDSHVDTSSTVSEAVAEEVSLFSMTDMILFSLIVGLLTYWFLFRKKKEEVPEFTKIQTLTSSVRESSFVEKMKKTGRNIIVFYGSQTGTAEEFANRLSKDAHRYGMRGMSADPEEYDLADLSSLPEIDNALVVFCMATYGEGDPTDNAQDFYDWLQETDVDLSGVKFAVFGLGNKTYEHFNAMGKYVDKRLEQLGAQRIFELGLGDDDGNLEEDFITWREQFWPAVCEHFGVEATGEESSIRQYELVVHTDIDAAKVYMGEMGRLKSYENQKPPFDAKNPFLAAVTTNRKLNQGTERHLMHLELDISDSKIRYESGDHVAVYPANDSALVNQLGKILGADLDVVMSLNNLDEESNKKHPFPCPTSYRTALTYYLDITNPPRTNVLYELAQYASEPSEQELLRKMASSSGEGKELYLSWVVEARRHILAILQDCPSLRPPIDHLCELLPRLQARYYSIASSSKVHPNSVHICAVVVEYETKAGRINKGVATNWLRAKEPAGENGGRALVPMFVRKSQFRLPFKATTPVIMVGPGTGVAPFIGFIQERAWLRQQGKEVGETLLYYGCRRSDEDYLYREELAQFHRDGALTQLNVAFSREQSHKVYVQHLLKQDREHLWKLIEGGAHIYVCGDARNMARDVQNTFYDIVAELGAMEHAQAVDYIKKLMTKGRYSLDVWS
Briefly: EROD assay with recombinant enzyme, compound at […]. It is filed as biochemical.

In test [2] the target is T2, P450 1B1 (Homo sapiens, UniProt Q16678).
T2 sequence (Q16678 1-543): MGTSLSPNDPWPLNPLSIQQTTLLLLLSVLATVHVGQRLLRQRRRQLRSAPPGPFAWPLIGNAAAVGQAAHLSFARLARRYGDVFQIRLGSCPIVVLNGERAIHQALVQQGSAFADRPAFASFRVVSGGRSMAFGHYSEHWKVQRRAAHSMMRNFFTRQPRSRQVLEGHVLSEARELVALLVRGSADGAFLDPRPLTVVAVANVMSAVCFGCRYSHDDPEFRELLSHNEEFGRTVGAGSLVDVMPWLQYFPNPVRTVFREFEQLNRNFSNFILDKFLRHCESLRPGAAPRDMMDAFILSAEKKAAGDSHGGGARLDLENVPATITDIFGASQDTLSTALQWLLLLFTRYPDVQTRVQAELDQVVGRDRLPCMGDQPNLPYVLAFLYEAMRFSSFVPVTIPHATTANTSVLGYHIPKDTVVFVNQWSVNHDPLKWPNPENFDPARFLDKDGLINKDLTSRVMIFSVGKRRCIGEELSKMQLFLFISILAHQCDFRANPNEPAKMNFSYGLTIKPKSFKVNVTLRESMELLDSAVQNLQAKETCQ
T2 sequence (P16435 2-677 partner): T1 sequence (P16435 2-677 partner)
Briefly: EROD assay with recombinant enzyme, compound at […]. The test is classed as biochemical.

Regarding `C=CC(C)(C)c1cc(/C=C/C(=O)c2ccc(O)cc2)c(OC)cc1O` [LicA, licochalcone A], the “EROD assay with recombinant enzyme, compound at 1 and 10 uM” value in test [1] was “LicA and LigC led to a significant inhibition of recombinant P450 1A1/1B1 enzyme activity (Figure 7B, C)”; in test [2] it was “LicA and LigC led to a significant inhibition of recombinant P450 1A1/1B1 enzyme activity (Figure 7B, C)”.
Take `O=C(/C=C/c1ccc(O)cc1)c1ccc(O)cc1O` [LigC, isoliquiritigenin]: the “EROD assay with recombinant enzyme, compound at 1 and 10 uM” value is “LicA and LigC led to a significant inhibition of recombinant P450 1A1/1B1 enzyme activity (Figure 7B, C)” in test [1]; “LicA and LigC led to a significant inhibition of recombinant P450 1A1/1B1 enzyme activity (Figure 7B, C)” in test [2].
